Test results taken from patent US9289398B2, “Methods for the production of functional protein from DNA having a nonsense mutation and the treatment of disorders associated therewith” (PTC Therapeutics, Inc., priority 2006, dated 2016).

Columns and labels:
Assay type in all cases: in vivo, human
[1] = Body weight, CF Phase 2 study
Excerpt: 3-[5-(2-Fluoro-phenyl)-[1,2,4]oxadiazol-3-yl]-benzoic acid was provided in a formulation described herein.
Statistically significant results and positive trends for secondary endpoints were also observed. In particular, although the trials were not been powered to detect statistical significant changes in secondary endpoints, statistically significant improvements from study entry to the end of the higher-dose treatment cycle in the patients' mean FEV1, FVC and weight were observed.

[2] = Pharmacokinetics, DMD Phase 2 interim analysis; conditions: for Cmin: DMD patients, 4, 4, 8 mg/kg
Description: (§1) 3-[5-(2-Fluoro-phenyl)-[1,2,4]oxadiazol-3-yl]-benzoic acid is provided in a formulation described herein. Treatment is administered over 28 days for each treatment cohort. An initial cohort of patients are treated daily for 28 days with 3-[5-(2-fluoro-phenyl)-[1,2,4]oxadiazol-3-yl]-benzoic acid at a given dose level (e.g., 4-, 4-, and 8-mg/kg) TID. If the initial patients tolerate the drug, then a second cohort of patients receives 3-[5-(2-fluoro-phenyl)-[1,2,4]oxadiazol-3-yl]-benzoic acid at a higher dose level (e.g., 10-, 10-, and 20-mg/kg) TID. Thus, each patient receives a total of 84 doses of 3-[5-(2-fluoro-phenyl)-[1,2,4]oxadiazol-3-yl]-benzoic acid. After the end of 28 days of treatment, each patient is followed for an additional 28 days without treatment.
At each dose level, it is recommended that 3-[5-(2-fluoro-phenyl)-[1,2,4]oxadiazol-3-yl]-benzoic acid be taken TID at 6-, 6-, and 12-hour (±˜30 minutes) intervals. Ideally each dose is taken within ˜30 minutes after a meal (e.g., ˜7:00 AM after breakfast, ˜1:00 PM after lunch, and ˜7:00 PM after dinner). While it is realized that variations in dosing schedule may occur in the outpatient setting, it is recommended that the prescribed regimen (including dosing intervals and the relationship of dosing to meals) be followed closely on the days of PK sample collection. Clinical endpoints are evaluated using the procedures set forth above.
Six patients were administered 3-[5-(2-fluoro-phenyl)-[1,2,4]oxadiazol-3-yl]-benzoic acid TID in a regimen consisting of 4 mg/kg with breakfast, 4 mg/kg with lunch, and 8 mg/kg with supper, for a total daily dose of 16 mg/kg. All patients were ambulatory, but had characteristic signs and symptoms of DMD, including some degree of muscle dysfunction and elevated serum CK concentrations. […] These adverse events included diarrhea in 1 patient; abdominal pain in 1 patient; and flatulence in 2 patients. […] Treatment compliance was good, with patients taking >95% of the intended total drug treatment for 28 days at the lower dose level. […]

[3] = Safety, tolerability and compliance, DMD Phase 2 interim (6 patients)
Description: as §1
Six patients were administered 3-[5-(2-fluoro-phenyl)-[1,2,4]oxadiazol-3-yl]-benzoic acid TID in a regimen consisting of 4 mg/kg with breakfast, 4 mg/kg with lunch, and 8 mg/kg with supper, for a total daily dose of 16 mg/kg. All patients were ambulatory, but had characteristic signs and symptoms of DMD, including some degree of muscle dysfunction and elevated serum CK concentrations. […] These adverse events included diarrhea in 1 patient; abdominal pain in 1 patient; and flatulence in 2 patients. […] Treatment compliance was good, with patients taking >95% of the intended total drug treatment for 28 days at the lower dose level.

[4] = test system: serum CK; test: Serum CK levels, DMD Phase 2; conditions: boys with nonsense-mutation-mediated DMD, 28 days
Description: Serum CK activity is assessed using a commercially available NADH-linked kinetic assay (Diagnostic Chemicals Ltd., Oxford, Conn.). Serum CK levels are measured prior to treatment, on day 1 (prior to first dose), day 7, day 14, day 21, and day 27 during the treatment period, and on day 42 and day 56 after treatment. Serum CK is increased in Duchenne muscular dystrophy and therefore is a readily measurable diagnostic marker for the disease and may serve as a potential biomarker for the pharmacological activity of the drug (Mendell et al., 1989, New Eng. J. Med. 320(24):1592-1597).
3-[5-(2-fluoro-phenyl)-[1,2,4]oxadiazol-3-yl]-benzoic acid was administered orally for 28 days at dose levels of 4, 4, 8 mg/kg (low dose); 10, 10, 20 mg/kg (mid dose); and 20, 20, 40 mg/kg (high dose) after breakfast, lunch, and dinner, respectively. 26 boys (ages: 5-13 years; stop codons: 15 UGA, 6 UAG, 5 UAA; baseline serum CK: 8,645-49,500 IU; steroid use: 19/26) completed 3-[5-(2-fluoro-phenyl)-[1,2,4]oxadiazol-3-yl]-benzoic acid at the low (n=6) or mid (n=20) dose levels. […] Compliance was >98% for both dose levels. Day 1 and Day 28 PK indicate stable plasma exposures over time; however, exposures were lower than in 3-[5-(2-fluoro-phenyl)-[1,2,4]oxadiazol-3-yl]-benzoic acid-treated healthy adult volunteers and cystic fibrosis patients. […]

[5] = Muscle strength (myometry) and timed function tests, DMD Phase 2; conditions: within the 28 days of treatment
Description: Upper and lower extremity myometry are performed using a hand-held myometer following standardized procedures (Beenakker, 2001, Neuromuscul. Disord. 11(5):441-6; Hyde, 2001, Neuromuscul. Disord 11(2):165-70). It is recommended (depending on the subject's baseline functional status) that evaluated muscle groups include hip abductors, knee extensors, elbow flexors and extensors, and hand grip. Bilateral assessments can be done, and three measurements can be recorded from each muscle group on each side. These parameters are monitored prior to treatment, on the second to last day of treatment, and during a follow-up period after treatment. During the pre-treatment and treatment periods, the myometry procedures are performed prior to the muscle biopsy.
Timed function tests include time taken to stand from a supine position, time taken to walk 10 meters, and time taken to climb 4 standard-sized stairs (Mendell, 1989, N. Engl. J. Med. 320(24):1592-7; Griggs, 1991, Arch. Neurol. 48(4):383-8). These parameters are monitored prior to treatment, on the second to last day of treatment, and during a follow-up period after treatment. During the pre-treatment and treatment periods, the timed function tests are performed prior to the muscle biopsy. […]

[6] = 6 DMD patients, 4, 4, 8 mg/kg TID
[7] = of 6 DMD patients, 4, 4, 8 mg/kg TID

Cmin ([2]; Day 1, N = 6, mean): 0.5 µg/mL
Cmin ([2]; Day 27, N = 6, mean): 0.6 µg/mL
SMILES: O=C(O)c1cccc(-c2noc(-c3ccccc3F)n2)c1 [3-[5-(2-fluoro-phenyl)-[1,2,4]oxadiazol-3-yl]-benzoic acid]
Weight, End of Higher Dose Treatment ([1]; study entry 58.3 kg): 59.0 kg
Weight, Change ([1]; study entry to end of higher dose treatment): 0.7 kg
Drug accumulation / induction of metabolism ([2]; 27-day treatment interval between sampling periods): neither evidence of drug accumulation nor evidence of decreased drug levels due to the induction of metabolism
Discontinuation of treatment due to an adverse event ([3]; 6 DMD patients): No patient discontinued treatment
Physical examinations, vital sign measurements, electrocardiograms [3, 6]: no safety concerns
Serum liver enzymes, bilirubin, creatinine, blood urea nitrogen [3, 6]: No clinically significant elevations
Serious drug-related adverse events ([3]; 6 DMD patients, 4, 4, 8 mg/kg TID, 28 days): No serious drug-related adverse events
Severity of potentially drug-related adverse events ([3]; 6 DMD patients, 4, 4, 8 mg/kg TID, preliminary): mild
Abdominal pain, number of patients [3, 7]: 1
Diarrhea, number of patients [3, 7]: 1
Flatulence, number of patients [3, 7]: 2
Serum CK levels during administration [4]: decreased significantly
Changes in muscle strength and timed functions [5]: small and not significant
